pIC50, pKd: −log10 of the molar value. Active and inactive are the calls of the source. The calls are words filed in the database; no cut-off is given here.
Legend:
[1] = test system: BMDM; assay: Effect on NLRP3 expression in LPS-stimulated mouse bone marrow-derived macrophages at 0.5 to 2 uM preincubated for 30 mins followed by nigericin addition and measured after 30 mins by Western blot analysis; format: functional, tissue-based; conditions: dose 0.5-2 µM, time 60.0 min
[2] = test system: Mus musculus; assay: Protection against DSS-induced acute ulcerative colitis in C57BL/6 mouse assessed as reduction in pathological index score at 10 to 20 mg/kg, ig administered for 7 days by Hematoxylin and eosin staining based optical microscopy; format: functional, organism-based; conditions: dose 10-20 mg/kg, time 7.0 day
[3] = test system: Mus musculus; assay: In vivo inhibition of NLRP3 inflammasome activation in C57BL/6 mouse assessed as reduction in MPO activity at 10 to 20 mg/kg, ig administered for 7 days by ELISA; format: functional, organism-based; conditions: dose 10-20 mg/kg, time 7.0 day
[4] = target: NACHT, LRR and PYD domains-containing protein 3 (Homo sapiens, UniProt Q96P20); assay: Binding affinity to His-GFP fused tagged NLRP3 (unknown origin) expressed in HEK293T incubated for 30 mins by microscale thermophoresis assay; format: cell-based
Chain of NACHT, LRR and PYD domains-containing protein 3 (Homo sapiens, UniProt Q96P20) (Q96P20 whole entry, the tested form may be a part): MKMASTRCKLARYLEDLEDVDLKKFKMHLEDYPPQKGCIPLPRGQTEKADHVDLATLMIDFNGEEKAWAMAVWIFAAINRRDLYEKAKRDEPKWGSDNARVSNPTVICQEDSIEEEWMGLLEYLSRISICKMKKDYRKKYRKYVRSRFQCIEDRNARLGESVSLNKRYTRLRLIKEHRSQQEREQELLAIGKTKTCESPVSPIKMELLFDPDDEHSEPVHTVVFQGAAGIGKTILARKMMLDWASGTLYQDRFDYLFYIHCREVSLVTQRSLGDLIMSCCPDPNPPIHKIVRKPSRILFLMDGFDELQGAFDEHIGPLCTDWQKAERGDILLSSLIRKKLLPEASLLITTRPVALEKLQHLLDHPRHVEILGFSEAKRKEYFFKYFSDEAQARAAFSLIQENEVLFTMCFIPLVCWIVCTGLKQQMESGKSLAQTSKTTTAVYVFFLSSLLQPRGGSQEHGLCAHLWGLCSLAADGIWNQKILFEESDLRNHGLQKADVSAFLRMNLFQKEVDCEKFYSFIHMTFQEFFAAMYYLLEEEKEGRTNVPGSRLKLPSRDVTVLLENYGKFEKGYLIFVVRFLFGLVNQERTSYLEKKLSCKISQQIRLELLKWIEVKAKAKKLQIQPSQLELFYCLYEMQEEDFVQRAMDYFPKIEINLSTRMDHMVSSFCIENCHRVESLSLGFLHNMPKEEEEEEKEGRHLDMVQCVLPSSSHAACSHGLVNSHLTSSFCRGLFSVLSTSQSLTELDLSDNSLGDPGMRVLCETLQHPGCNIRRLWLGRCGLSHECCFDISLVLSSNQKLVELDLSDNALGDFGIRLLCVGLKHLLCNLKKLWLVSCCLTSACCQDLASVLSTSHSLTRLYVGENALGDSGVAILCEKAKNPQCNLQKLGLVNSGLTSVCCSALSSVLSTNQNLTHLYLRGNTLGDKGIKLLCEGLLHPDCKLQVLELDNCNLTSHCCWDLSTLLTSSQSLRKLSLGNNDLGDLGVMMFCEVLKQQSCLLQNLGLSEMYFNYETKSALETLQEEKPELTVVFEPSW

[5] = target: NACHT, LRR and PYD domains-containing protein 3 (Mus musculus) (UniProt Q8R4B8); assay: Inhibition of NLRP3 inflammasome activation in LPS-stimulated mouse bone marrow-derived macrophages assessed as attenuation of ASC dimer at 1 to 4 uM preincubated for 30 mins followed by nigericin addition and measured after 0.5 hrs by Western blot analysis; format: tissue-based; conditions: Macrophage, dose 1-4 µM
Target sequence in this assay (Q8R4B8 whole entry, the tested form may be a part): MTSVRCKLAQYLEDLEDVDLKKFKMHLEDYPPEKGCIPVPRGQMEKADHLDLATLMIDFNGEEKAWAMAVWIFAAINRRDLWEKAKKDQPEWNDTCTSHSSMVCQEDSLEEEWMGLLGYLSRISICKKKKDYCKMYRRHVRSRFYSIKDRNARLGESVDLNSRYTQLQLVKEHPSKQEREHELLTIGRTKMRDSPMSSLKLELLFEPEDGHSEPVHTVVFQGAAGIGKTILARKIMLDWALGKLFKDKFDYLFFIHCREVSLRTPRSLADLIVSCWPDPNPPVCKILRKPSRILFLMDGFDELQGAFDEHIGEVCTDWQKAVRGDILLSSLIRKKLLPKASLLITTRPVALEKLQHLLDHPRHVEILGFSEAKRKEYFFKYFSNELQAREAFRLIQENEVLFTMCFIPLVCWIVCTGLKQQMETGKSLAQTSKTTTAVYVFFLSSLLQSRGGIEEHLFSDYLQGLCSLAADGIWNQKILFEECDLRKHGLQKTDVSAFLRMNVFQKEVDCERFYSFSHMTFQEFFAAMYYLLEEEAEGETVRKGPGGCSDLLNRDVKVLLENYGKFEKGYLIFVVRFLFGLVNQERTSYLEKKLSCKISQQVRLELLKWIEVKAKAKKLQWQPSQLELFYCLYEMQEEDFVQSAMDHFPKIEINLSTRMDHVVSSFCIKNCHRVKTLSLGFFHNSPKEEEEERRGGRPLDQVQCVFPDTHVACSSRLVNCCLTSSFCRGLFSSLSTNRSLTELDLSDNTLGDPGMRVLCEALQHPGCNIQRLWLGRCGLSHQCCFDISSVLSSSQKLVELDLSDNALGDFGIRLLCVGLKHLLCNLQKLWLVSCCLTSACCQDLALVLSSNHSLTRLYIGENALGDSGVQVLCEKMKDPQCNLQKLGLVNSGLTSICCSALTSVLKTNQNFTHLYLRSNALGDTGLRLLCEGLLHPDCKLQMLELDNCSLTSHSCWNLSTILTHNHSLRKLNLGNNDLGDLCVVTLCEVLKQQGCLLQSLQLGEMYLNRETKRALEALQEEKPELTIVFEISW

[6] = test system: Mus musculus; assay: Anti-inflammatory activity in C57BL/6 mouse DSS-induced acute ulcerative colitis assessed as reduction in disease index at 10 to 20 mg/kg, ig administered for 7 days; format: functional, organism-based; conditions: dose 10-20 mg/kg, time 7.0 day
[7] = Hepatic clearance in human liver microsomes preincubated for 5 mins followed by NADPH addition and measured after 5 to 60 mins by LC-MS/MS analysis; format: ADME, Microsome; conditions: time 5-60 min
[8] = target: NACHT, LRR and PYD domains-containing protein 3 (Mus musculus) (UniProt Q8R4B8); assay: Inhibition of NLRP3 inflammasome activation in LPS-stimulated mouse bone marrow-derived macrophages assessed as reduction in IL-1beta secretion at 2 uM preincubated for 30 mins followed by MSU addition and measured after 0.5 hrs by ELISA; format: tissue-based; conditions: Macrophage, time 60.0 min
Target sequence in this assay (Q8R4B8 whole entry, the tested form may be a part): as above

[9] = Toxicity in C57BL/6 mouse assessed as effect on spleen at 20 to 40 mg/kg, ig administered for 28 days; format: organism-based; conditions: in vivo, po, 672 h, dose 20-40 mg/kg, time 28 day
[10] = target: NACHT, LRR and PYD domains-containing protein 3 (Mus musculus) (UniProt Q8R4B8); assay: Inhibition of NLRP3 inflammasome activation in LPS-stimulated mouse bone marrow-derived macrophages assessed as reduction in ASC polymerization at 1 to 4 uM preincubated for 30 mins followed by nigericin addition and measured after 0.5 hrs by DAPI staining based confocal scanning microscopy; conditions: Macrophage, dose 1-4 µM
Target sequence in this assay (Q8R4B8 whole entry, looked up, the tested form may be a part): as the sequence (Q8R4B8 whole entry, the tested form may be a part) above

[11] = target: NACHT, LRR and PYD domains-containing protein 3 (Mus musculus) (UniProt Q8R4B8); assay: Binding affinity to NLRP3 in mouse J774A1 cells assessed as thermal stabilization at 50 uM incubated for 30 mins by cellular thermal shift assay; format: cell-based; conditions: J774.A1
Target sequence in this assay (Q8R4B8 whole entry, the tested form may be a part): as above

[12] = test system: Mus musculus; assay: Protection against DSS-induced acute ulcerative colitis in C57BL/6 mouse assessed as reduction in bloody stool at 10 to 20 mg/kg, ig administered for 7 days; format: functional, organism-based; conditions: dose 10-20 mg/kg, time 7.0 day
[13] = target: NACHT, LRR and PYD domains-containing protein 3 (Mus musculus) (UniProt Q8R4B8); assay: Inhibition of NLRP3 inflammasome activation in LPS-stimulated mouse bone marrow-derived macrophages assessed as attenuation of ASC monomer at 1 to 4 uM preincubated for 30 mins followed by nigericin addition and measured after 0.5 hrs by Western blot analysis; format: tissue-based; conditions: Macrophage, dose 1-4 µM, time 60.0 min
Target sequence in this assay (Q8R4B8 whole entry, the tested form may be a part): as above

[14] = target: NACHT, LRR and PYD domains-containing protein 3 (Mus musculus) (UniProt Q8R4B8); assay: Inhibition of NLRP3 inflammasome activation in LPS-stimulated mouse bone marrow-derived macrophages assessed as reduction in pro IL-1beta in cell lysate at 2 uM preincubated for 30 mins followed by MSU addition and measured after 0.5 hrs by Western blot analysis; format: subcellular; conditions: Macrophage, time 60.0 min
Target sequence in this assay (Q8R4B8 whole entry, the tested form may be a part): as above

[15] = Cmax in mouse at 20 mg/kg, po measured up to 24 hrs by LC-MS/MS analysis; format: ADME, organism-based; parameters: route oral, dose 20 mg/kg, time <=24; conditions: in vivo
[16] = Half life in human liver microsomes preincubated for 5 mins followed by NADPH addition and measured after 5 to 60 mins by LC-MS/MS analysis; format: ADME, Microsome
[17] = target: NACHT, LRR and PYD domains-containing protein 3 (Mus musculus) (UniProt Q8R4B8); assay: Inhibition of NLRP3 inflammasome activation in LPS-stimulated mouse bone marrow-derived macrophages assessed as reduction in activated caspase1 p20 in supernatant at 2 uM preincubated for 30 mins followed by ATP addition and measured after 0.5 hrs by Western blot analysis; format: tissue-based; conditions: Macrophage, time 60.0 min
Target sequence in this assay (Q8R4B8 whole entry, the tested form may be a part): as above

[18] = Toxicity in C57BL/6 mouse assessed as induction of anorexia at 20 to 40 mg/kg, ig administered for 28 days; format: organism-based; conditions: in vivo, po, 672 h, dose 20-40 mg/kg, time 28 day
[19] = test system: Mus musculus; assay: Protection against DSS-induced acute ulcerative colitis in C57BL/6 mouse assessed as reduction in body weight at 10 to 20 mg/kg, ig administered for 7 days; format: functional, organism-based; conditions: dose 10-20 mg/kg, time 7.0 day
[20] = Toxicity in C57BL/6 mouse assessed as effect on kidney at 20 to 40 mg/kg, ig administered for 28 days; format: organism-based; conditions: in vivo, po, 672 h, dose 20-40 mg/kg, time 28 day
[21] = Clearance in mouse at 20 mg/kg, po measured up to 24 hrs by LC-MS/MS analysis; format: ADME, organism-based; conditions: in vivo
[22] = test system: Mus musculus; assay: Downregulation of phosphorylated STAT3 expression in colon of C57BL/6 mouse model of DSS-induced ulcerative colitis at 10 to 20 mg/kg, ig administered for 7 days by Western blot analysis; format: functional, organism-based; conditions: dose 10-20 mg/kg, time 7.0 day
[23] = target: NACHT, LRR and PYD domains-containing protein 3 (Mus musculus) (UniProt Q8R4B8); assay: Inhibition of NLRP3 inflammasome activation in LPS-stimulated mouse J774A.1 cells assessed as inhibition of cell pyrolysis at 10 uM incubated for 1 hr followed by ATP addition and measured after 30 mins by Hoechst 33342/propidium iodide staining based high content screening method relative to control; conditions: J774.A1, time 1.5 hrs
[24] = Toxicity in C57BL/6 mouse assessed as overactivity at 20 to 40 mg/kg, ig administered for 28 days; format: organism-based; conditions: in vivo, po, 672 h, dose 20-40 mg/kg, time 28 day
[25] = target: NACHT, LRR and PYD domains-containing protein 3 (Mus musculus, UniProt Q8R4B8); assay: Inhibition of NLRP3 inflammasome activation in LPS-stimulated mouse bone marrow-derived macrophages assessed as reduction in IL-1beta secretion preincubated for 30 mins followed by nigericin addition and measured after 30 mins by ELISA; format: tissue-based, Macrophage
Chain of NACHT, LRR and PYD domains-containing protein 3 (Mus musculus, UniProt Q8R4B8) (Q8R4B8 whole entry, the tested form may be a part): as above

[26] = Inhibition of ROS production in LPS-stimulated mouse bone marrow-derived macrophages at 1 to 4 uM preincubated for 30 mins followed by nigericin addition and measured after 0.5 hrs by Western blot analysis; conditions: Macrophage, dose 1-4 µM, time 60.0 min
[27] = target: NACHT, LRR and PYD domains-containing protein 3 (Mus musculus) (UniProt Q8R4B8); assay: Inhibition of NLRP3 inflammasome activation in LPS-stimulated mouse bone marrow-derived macrophages assessed as reduction in ILbeta secretion at 2 uM preincubated for 30 mins followed by ATP addition and measured after 0.5 hrs by ELISA; format: tissue-based; conditions: Macrophage, time 60.0 min

COc1cc(/C=C/c2ccc(NC(=O)C3CC3)cc2)c(/C=C/[N+](=O)[O-])c(OC)c1
Activity [1]: inactive | Activity [2]: Active | inhibition [3]: Active | pKd [4]: 6.58 | inhibition [5]: Active | Activity [6]: Active | CLhep predicted [7]: 11 mL/min/kg | inhibition [8]: Active | Activity [9]: Non-Toxic | inhibition [10]: Active | Activity [11]: Active | Activity [12]: Active | inhibition [13]: Active | inhibition [14]: Active | Cmax [15]: 95.1 ng/mL | half-life [16]: 1.13 h | inhibition [17]: Active | Activity [18]: Non-Toxic | Activity [19]: Active | Activity [20]: Non-Toxic | CL [21]: 152 mL/min/kg | Activity [22]: Active | inhibition [23]: 73.1% | Activity [24]: Non-Toxic | pIC50 [25]: 6.25 | inhibition [26]: inactive | inhibition [27]: Active
